Test results from ChEMBL document CHEMBL1201862, “PubChem BioAssay data set” (2004).
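Five concentrations, 48 hours, 96-well plates. Abbreviation: GI50, concentration required for 50% inhibition of growth.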 Active and inactive are the calls of the source. No stated cut-off is given here; in the data, active = GI50 up to about 1.1 µM and inactive = higher.

How the values were obtained:
Assay in all cases: NCI anticancer screen, dose series, 48 h
A549 = system: A549
ACHN = system: ACHN
CCRF-CEM = system: CCRF-CEM
COLO 205 = system: COLO 205
EKVX = system: EKVX
HL-60 = system: HL-60
HOP-92 = system: HOP-92
K562 = system: K562
LXFL 529 = system: LXFL 529
NCI-H460 = system: NCI-H460
SF-295 = system: SF-295
SK-MEL-28 = system: SK-MEL-28
SK-MEL-2 = system: SK-MEL-2
SK-MEL-5 = system: SK-MEL-5
SK-OV-3 = system: SK-OV-3
U-251 = system: U-251
BT-549 = system: BT-549
Hs-578T = system: Hs-578T
MDA-MB-231 = system: MDA-MB-231
MDA-N = system: MDA-N

Q: What does the source list for `COc1cc([C@@H]2c3cc4c(cc3[C@@H](NC(=O)c3ccc([N+](=O)[O-])cc3)C3COC(=O)[C@@H]32)OCO4)cc(OC)c1O` (some centres undefined)?
A: GI50 (A549): 0.0189 µM (active); GI50 (ACHN): 0.194 µM (active); GI50 (CCRF-CEM): 0.124 µM (active); GI50 (COLO 205): 2.13 µM (inactive); GI50 (EKVX): 0.975 µM (active); GI50 (HL-60): 0.0432 µM (active); GI50 (HOP-92): 0.7 µM (active); GI50 (K562): 0.889 µM (active); GI50 (LXFL 529): 3.13 µM (inactive); GI50 (NCI-H460): < 0.01 µM (active); GI50 (SF-295): 0.249 µM (active); GI50 (SK-MEL-28): 1.97 µM (inactive); GI50 (SK-MEL-2): 2.83 µM (inactive); GI50 (SK-MEL-5): 0.361 µM (active); GI50 (SK-OV-3): 0.334 µM (active); GI50 (U-251): 0.108 µM (active)

Q: Which results are given for `O=C(c1ccccc1)C1(Br)S(=O)(=O)OCCOS1(=O)=O`?
A: GI50 (A549): > 100 µM (inactive); GI50 (ACHN): > 100 µM (inactive); GI50 (CCRF-CEM): > 100 µM (inactive); GI50 (COLO 205): > 100 µM (inactive); GI50 (EKVX): > 100 µM (inactive); GI50 (HL-60): > 100 µM (inactive); GI50 (HOP-92): > 100 µM (inactive); GI50 (K562): > 100 µM (inactive); GI50 (LXFL 529): > 100 µM (inactive); GI50 (NCI-H460): > 100 µM (inactive); GI50 (SF-295): > 100 µM (inactive); GI50 (SK-MEL-28): > 100 µM (inactive); GI50 (SK-MEL-2): > 100 µM (inactive); GI50 (SK-MEL-5): > 100 µM (inactive); GI50 (SK-OV-3): > 100 µM (inactive); GI50 (U-251): > 100 µM (inactive)

Q: For `FC(F)(F)c1ccc(C2SCc3nc4ccccc4n32)cc1` (centres undefined), which GI50 (A549) is on record?
A: 41.8 µM (inactive)

Q: What about the GI50 (ACHN) of the same compound?
A: 39.2 µM (inactive)

Q: What about the GI50 (CCRF-CEM) of the same compound?
A: 31.4 µM (inactive)

Q: What about the GI50 (COLO 205) of the same compound?
A: > 100 µM (inactive)

Q: And the GI50 (EKVX)?
A: 29.7 µM (inactive)

Q: What about the GI50 (HL-60) of the same compound?
A: 3.13 µM (inactive)

Q: What about the GI50 (HOP-92) of the same compound?
A: 1.11 µM (active)

Q: And the GI50 (K562)?
A: 3.75 µM (inactive)

Q: And the GI50 (LXFL 529)?
A: 23.4 µM (inactive)

Q: What about the GI50 (SF-295) of the same compound?
A: > 100 µM (inactive)

Q: And the GI50 (SK-MEL-28)?
A: > 100 µM (inactive)

Q: What about the GI50 (SK-MEL-2) of the same compound?
A: > 100 µM (inactive)

Q: And the GI50 (SK-MEL-5)?
A: 11.5 µM (inactive)

Q: What about the GI50 (SK-OV-3) of the same compound?
A: 18.2 µM (inactive)

Q: What about the GI50 (U-251) of the same compound?
A: > 100 µM (inactive)

Q: Which GI50 (A549) does the source give for `CC(C)(CN1CCCCC1)C(=O)/C=C/c1ccc(/C=C/C(=O)C(C)(C)CN2CCCCC2)cc1` here?
A: 0.933 µM (active)

Q: What about the GI50 (ACHN) of the same compound?
A: 0.264 µM (active)

Q: What about the GI50 (BT-549) of the same compound?
A: 1.7 µM (inactive)

Q: And the GI50 (CCRF-CEM)?
A: 0.0466 µM (active)

Q: And the GI50 (COLO 205)?
A: 0.152 µM (active)

Q: What about the GI50 (EKVX) of the same compound?
A: 1.71 µM (inactive)

Q: And the GI50 (HL-60)?
A: 0.116 µM (active)

Q: What about the GI50 (HOP-92) of the same compound?
A: 0.333 µM (active)

Q: What about the GI50 (Hs-578T) of the same compound?
A: 0.42 µM (active)

Q: And the GI50 (K562)?
A: 0.103 µM (active)

Q: And the GI50 (LXFL 529)?
A: 0.262 µM (active)

Q: And the GI50 (MDA-MB-231)?
A: 0.196 µM (active)

Q: What about the GI50 (MDA-N) of the same compound?
A: 0.177 µM (active)

Q: And the GI50 (NCI-H460)?
A: 0.684 µM (active)

Q: What about the GI50 (SF-295) of the same compound?
A: 0.661 µM (active)

Q: And the GI50 (SK-MEL-28)?
A: 1.17 µM (inactive)

Q: And the GI50 (SK-MEL-2)?
A: 1.25 µM (inactive)

Q: What about the GI50 (SK-MEL-5) of the same compound?
A: 1.04 µM (active)

Q: And the GI50 (SK-OV-3)?
A: 1.57 µM (inactive)

Q: What about the GI50 (U-251) of the same compound?
A: 0.273 µM (active)

Q: With `C[C@@]1(O)CC[C@]2(C)C3CCCC3[C@H]12` (some centres undefined) as the compound, how does the GI50 (A549) read?
A: > 100 µM (inactive)

Q: And the GI50 (ACHN)?
A: > 100 µM (inactive)

Q: And the GI50 (CCRF-CEM)?
A: > 100 µM (inactive)

Q: What about the GI50 (COLO 205) of the same compound?
A: > 100 µM (inactive)

Q: And the GI50 (EKVX)?
A: > 100 µM (inactive)

Q: And the GI50 (HL-60)?
A: > 100 µM (inactive)

Q: What about the GI50 (HOP-92) of the same compound?
A: > 100 µM (inactive)

Q: What about the GI50 (K562) of the same compound?
A: > 100 µM (inactive)

Q: And the GI50 (LXFL 529)?
A: > 100 µM (inactive)

Q: What about the GI50 (NCI-H460) of the same compound?
A: > 100 µM (inactive)

Q: What about the GI50 (SF-295) of the same compound?
A: > 100 µM (inactive)

Q: And the GI50 (SK-MEL-28)?
A: > 100 µM (inactive)

Q: What about the GI50 (SK-MEL-2) of the same compound?
A: > 100 µM (inactive)

Q: What about the GI50 (SK-MEL-5) of the same compound?
A: > 100 µM (inactive)

Q: What about the GI50 (SK-OV-3) of the same compound?
A: > 100 µM (inactive)

Q: What about the GI50 (U-251) of the same compound?
A: > 100 µM (inactive)

Q: What does the source list for `CCCCCCCCCC(=O)OCC1OC(n2cc(F)c(=O)[nH]c2=O)C(NC(=O)OCc2ccccc2)C(OC(=O)CCCCCCCCC)C1O` (centres undefined)?
A: GI50 (A549): 26.1 µM (inactive); GI50 (ACHN): 58.7 µM (inactive); GI50 (CCRF-CEM): 21.8 µM (inactive); GI50 (COLO 205): 32.8 µM (inactive); GI50 (EKVX): 31.6 µM (inactive); GI50 (HL-60): 24.1 µM (inactive); GI50 (HOP-92): 18.2 µM (inactive); GI50 (K562): 30.1 µM (inactive); GI50 (LXFL 529): 24.7 µM (inactive); GI50 (NCI-H460): > 10 µM (inactive); GI50 (SF-295): 40 µM (inactive); GI50 (SK-MEL-28): 42.1 µM (inactive); GI50 (SK-MEL-2): 31 µM (inactive); GI50 (SK-MEL-5): 20.3 µM (inactive); GI50 (SK-OV-3): > 100 µM (inactive); GI50 (U-251): 15 µM (inactive)
